Data taken from patent US11795460B2, “Compositions and methods for TTR gene editing and treating ATTR amyloidosis” (Intellia Therapeutics, Inc., priority 2017, dated 2023).

Experiments:
off-target genomic sites = assay: Off-target oligo insertion based assay in HEK293_Cas9 cells, dgRNAs and sgRNAs (Tables 23, 24); assay type: cell-based, human; conditions: Table 23; TTR dgRNAs in HekCas9 cells, oligo insertion based assay
Outline: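 In HEK293 cells constitutively expressing Spy Cas9, crRNA (15 nM) plus trRNA (15 nM), or modified sgRNAs, were lipofected with donor oligo (10 nM). Genomic DNA was collected at 24 h, and oligo-insertion libraries were sequenced on MiSeq/HiSeq to map potential off-target cleavage sites.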

TTR = TTR editing in primary human hepatocytes electroporated with Spy Cas9 protein loaded with dgRNAs (Table 7); assay type: cell-based; conditions: dgRNA electroporated with Spy Cas9 protein (RNP)
Outline: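 Editing efficiency is the fraction of NGS reads carrying insertions, deletions or substitutions at the TTR target, measured on MiSeq amplicons from DNA harvested 24, 48 or 72 h post-delivery. Cas9–dgRNA ribonucleoprotein was nucleofected (P3 buffer, EX-147) into primary human or cyno hepatocytes.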

Row | Sequence | # Sites (off-target integration sites detected) (off-target genomic sites) | Avg % Deletion (TTR) [%] | Avg % Edit (TTR) [%] | Avg % Insert (TTR) [%]
1 | AUACCAGUCCAGCAAGGCAG (tested as dual guide RNA, chemistry not given here) [CR003338] | 2 | 2.13 | 83.03 | 80.87
2 | AUAGGAGUAGGGGCUCAGCA (tested as dual guide RNA, chemistry not given here) [CR003383] | 1 | 5.27 | 8.57 | 3.37
3 | AUUGGUGACGACAGCCGUGG (tested as dual guide RNA, chemistry not given here) [CR003389] | 2 | 0.50 | 27.67 | 27.20
4 | CAGAGGACACUUGGAUUCAC (tested as dual guide RNA, chemistry not given here) [CR003343] | 2 | 1.50 | 77.10 | 75.63
5 | CAUUGAUGGCAGGACUGCCU (tested as dual guide RNA, chemistry not given here) [CR003347] | 1 | 0.43 | 82.30 | 81.97
6 | CCAGUCCAGCAAGGCAGAGG (tested as dual guide RNA, chemistry not given here) [CR003337] | 10 | 1.30 | 54.27 | 53.23
7 | CCCAGAGGCAAAUGGCUCCC (tested as dual guide RNA, chemistry not given here) [CR003355] | 1 | 1.97 | 12.53 | 10.60
8 | CCCCUACUCCUAUUCCACCA (tested as dual guide RNA, chemistry not given here) [CR003385] | 3 | 2.53 | 40.87 | 38.43
9 | CCGUGGUGGAAUAGGAGUAG (tested as dual guide RNA, chemistry not given here) [CR003386] | 1 | 0.47 | 4.90 | 4.47
10 | CCUCCUCUGCCUUGCUGGAC (tested as dual guide RNA, chemistry not given here) [CR003336] | 2 | 0.70 | 39.17 | 38.43
11 | CUCUGCAUGCUCAUGGAAUG (tested as dual guide RNA, chemistry not given here) [CR003369] | 2 | 0.40 | 3.67 | 3.30
12 | CUGCUCCUCCUCUGCCUUGC (tested as dual guide RNA, chemistry not given here) [CR003335] | 0 | 2.50 | 72.20 | 69.70
13 | CUUCUCUACACCCAGGGCAC (tested as dual guide RNA, chemistry not given here) [CR003342] | 0 | 0.90 | 32.77 | 31.87
14 | GAAAGGCUGCUGAUGACACC (tested as dual guide RNA, chemistry not given here) [CR003352] | 2 | 4.30 | 29.83 | 25.63
15 | GACGACAGCCGUGGUGGAAU (tested as dual guide RNA, chemistry not given here) [CR003388] | 2 | 0.27 | 5.70 | 5.47
16 | GCAACUUACCCAGAGGCAAA (tested as dual guide RNA, chemistry not given here) [CR003356] | 4 | 2.23 | 9.97 | 7.80
17 | GCAGGGCGGCAAUGGUGUAG (tested as dual guide RNA, chemistry not given here) [CR003380] | 0 | 0.10 | 5.37 | 5.27
18 | GCCGUGGUGGAAUAGGAGUA (tested as dual guide RNA, chemistry not given here) [CR003387] | 6 | 0.20 | 1.87 | 1.70
19 | GCGGCAAUGGUGUAGCGGCG (tested as dual guide RNA, chemistry not given here) [CR003377] | 0 | 0.10 | 10.23 | 10.13
20 | GGAGUAGGGGCUCAGCAGGG (tested as dual guide RNA, chemistry not given here) [CR003382] | 34 | 0.43 | 8.40 | 8.10
21 | GGCUGUCGUCACCAAUCCCA (tested as dual guide RNA, chemistry not given here) [CR003391] | 0 | 0.27 | 29.77 | 29.57
22 | GGGAUUGGUGACGACAGCCG (tested as dual guide RNA, chemistry not given here) [CR003390] | 1 | 0.23 | 15.97 | 15.80
23 | GUCACAGAAACACUCACCGU (tested as dual guide RNA, chemistry not given here) [CR005301] | 0 | 1.60 | 25.37 | 24.00
24 | GUGAGUCUGGAGAGCUGCAU (tested as dual guide RNA, chemistry not given here) [CR003360] | 0 | 0.63 | 32.23 | 31.67
25 | UCUAGAACUUUGACCAUCAG (tested as dual guide RNA, chemistry not given here) [CR003345] | 0 | 13.57 | 48.07 | 34.53
26 | UGAAUCCAAGUGUCCUCUGA (tested as dual guide RNA, chemistry not given here) [CR005303] | 1 | 0.53 | 53.57 | 53.07
27 | UGGACUGGUAUUUGUGUCUG (tested as dual guide RNA, chemistry not given here) [CR003340] | 0 | 6.50 | 12.03 | 5.60
28 | UGUAGAAGGGAUAUACAAAG (tested as dual guide RNA, chemistry not given here) [CR003365] | 3 | 6.83 | 42.37 | 35.57
29 | UUCUUUGGCAACUUACCCAG (tested as dual guide RNA, chemistry not given here) [CR003357] | 3 | 0.77 | 36.23 | 35.47
30 | UUUGACCAUCAGAGGACACU (tested as dual guide RNA, chemistry not given here) [CR003344] | 0 | 6.10 | 39.40 | 33.30
